Patent US7674815B2, “Heteroaryl and benzyl amide compounds” (Hoffmann-La Roche Inc., priority 2006, dated 2010)

Target: T1, cholesteryl ester transfer protein (CETP) (Homo sapiens, UniProt P11597)
T1 construct: the source of CETP was human lipoprotein-deprived serum (LPDS); from tissue; host or cells: human lipoprotein-deprived serum (LPDS)
T1 sequence (P11597 18-493): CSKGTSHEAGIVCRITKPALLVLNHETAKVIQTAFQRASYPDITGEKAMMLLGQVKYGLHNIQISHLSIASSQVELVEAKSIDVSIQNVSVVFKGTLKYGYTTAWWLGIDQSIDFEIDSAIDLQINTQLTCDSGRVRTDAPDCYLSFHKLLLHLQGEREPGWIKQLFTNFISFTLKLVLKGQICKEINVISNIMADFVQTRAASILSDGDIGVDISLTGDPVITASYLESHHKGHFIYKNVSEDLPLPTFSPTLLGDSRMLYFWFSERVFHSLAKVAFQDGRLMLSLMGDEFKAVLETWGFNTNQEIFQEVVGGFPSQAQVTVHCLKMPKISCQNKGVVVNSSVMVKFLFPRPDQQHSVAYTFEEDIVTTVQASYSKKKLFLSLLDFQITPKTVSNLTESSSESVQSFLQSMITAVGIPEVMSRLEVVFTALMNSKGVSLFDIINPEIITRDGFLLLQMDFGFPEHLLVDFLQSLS
Assay: CETP inhibition SPA assay in the presence of plasma (CETP source human lipoprotein-deprived serum)
Assay type: biochemical
Conditions: source of CETP human lipoprotein-deprived serum (LPDS), radiolabeled cholesteryl ester transfer HDL to LDL
Protocol: Activity of CETP inhibitors was determined using a buffer assay system. Partially purified CETP transferred radiolabeled cholesteryl ester from HDL donor particles to biotin-labeled LDL acceptor particles. The reaction was stopped by addition of streptavidin-coupled scintillation proximity assay (SPA) beads. These beads captured the biotinylated acceptor particles and transferred radioactivity was measured. The assay system was purchased and performed according to manufacturer's recommendations (Amersham Biosciences). Inhibitory activity of compounds was determined as percentage of positive control activity containing CETP together with donor and acceptor particles. Serial dilution of compounds was performed in order to determine the IC50 values.
Activity of the compounds was subsequently measured in the presence of plasma using the same assay as described above except that the source of CETP was human lipoprotein-deprived serum (LPDS). Inhibitory activity of compounds was determined as percentage of positive control activity containing all the assay components except compound. Serial dilution of compounds was performed in order to determine the IC50 values.

| Structure (SMILES) | IC50 [nM] |
| --- | --- |
| O=C(c1cc(Cl)cc2cc[nH]c12)N(CCc1ccc(Cl)c(Cl)c1)Cc1cc2ccccc2o1 [Compound 1, 5-chloro-1H-indole-7-carboxylic acid benzofuran-2-ylmethyl-[2-(3,4-dichloro-phenyl)-ethyl]-amide] | 7020 |
| CNc1cnc(Cl)cc1C(=O)N(CCc1ccc(Cl)c(Cl)c1)Cc1ccc(C(C)(C)C)nc1 [Compound 38, N-(6-tert-butyl-pyridin-3-ylmethyl)-2-chloro-N-[2-(3,4-dichloro-phenyl)-ethyl]-5-methylamino-isonicotinamide] | 282 |
| CNc1ncc(Cl)cc1C(=O)N(CCc1cccc(C(F)(F)F)c1)Cc1ccc(C(C)(C)C)s1 [Compound 53, N-(5-tert-butyl-thiophen-2-ylmethyl)-5-chloro-2-methylamino-N-[2-(3-trifluoromethyl-phenyl)-ethyl]-nicotinamide] | 56 |
